From US20220096512A1, “WATER-BASED ANTIFUNGAL COMPOSITIONS” (Sigma-Aldrich Co. LLC, priority 2019, published 2022)
≈ marks a conversion by molar mass, not a printed value.

How the values were obtained:
Aspergillus niger = test: Diffusion disc MIC testing against Aspergillus niger; type: cell-based; conditions: diffusion paper disc, 10 μL applied, incubated overnight at 30° C., average of three experiments
Experimental: (§1) Minimum inhibitory concentration (MIC) testing was determined for the inventive nystatin formulation described herein, along with comparative antifungal agents.
(§2) Nystatin (Solid) and amphotericin were dissolved in DMF in 1 mg/mL. Econazole nitrate was dissolved in PBS to achieve 1 mg/mL. Nystatin formulation diluted with PBS to achieve the same potency as Nystatin (Solid).
(§3) Antibiotic medium 19 was sterilized in autoclave, after sterilization when the temperature lowered to 45° C. and 1 mL from spore suspension was added. 8 mL from this mixture dispensed to each petri dish.
(§4) On each dish 6 sterile diffusion paper disc were placed, 10 μL from each antibiotic were applied in 10, 15, 20, 25, 30, 35 μg/mL concentrations. Where MIC concentrations were below 10, lower concentrations were used: 2, 5, 7.5 μg/mL
(§5) The petri dishes were incubated overnight at 30° C. The MIC were determined as the lower concentration that inhibition could be visualized.

Candida albicans = test: Diffusion disc MIC testing against Candida albicans; type: cell-based; conditions: diffusion paper disc, 10 μL applied, incubated overnight at 30° C., average of three experiments
Experimental: as §1, §2, §3, §4, §5

Row | Molecule | MIC (Aspergillus niger; Aspergillus niger, read-out: Inhibition of Aspergillus niger (MIC, lower concentration at which inhibition could be visualized)) [µg/mL] | Inhibition of Aspergillus niger (MIC, lower concentration at which inhibition could be visualized) (Aspergillus niger) | Inhibition of Candida albicans (MIC, lower concentration at which inhibition could be visualized) (Candida albicans) | Inhibition of Aspergillus niger (MIC, lower concentration at which inhibition could be visualized) (Aspergillus niger; listed as Nystatin methyl ester)
1 | C[C@@H]1[C@H](O)[C@@H](C)/C=C/C=C/C=C/C=C/C=C/C=C/C=C/[C@H](O[C@@H]2O[C@H](C)[C@@H](O)[C@H](N)[C@@H]2O)C[C@@H]2O[C@](O)(C[C@@H](O)C[C@@H](O)[C@H](O)CC[C@@H](O)C[C@@H](O)CC(=O)O[C@H]1C)C[C@H](O)[C@H]2C(=O)O [Amphotericin, Amphotericin B] | 31.5 (≈ 34.1 µM) | – | – | –
2 | Clc1ccc(COC(Cn2ccnc2)c2ccc(Cl)cc2Cl)cc1 (stereo not shown) [Econazole, Econazole nitrate] | – | No inhibition | No inhibition | –
3 | C[C@@H]1[C@H](O)[C@@H](C)/C=C/C=C/CC/C=C/C=C/C=C/C=C/C(O[C@H]2O[C@H](C)[C@@H](O)[C@H](N)[C@@H]2O)CC2O[C@](O)(CC(O)C(O)CCC(O)CC(O)CC(O)CC(=O)O[C@H]1C)CC(O)C2C(=O)O (stereo partly shown) [Nystatin] | – | 22.5 µg/mL | 14 µg/mL | –
4 | Nystatin Methyl ester | – | No inhibition | 30 µg/mL | no observed inhibition
5 | Polymixin B | – | No inhibition | No inhibition | –
